In the supplement of paper PMC10307832:

How the values were obtained:
Experiment in all cases: relative viability (nuclei count vs DMSO), 5 days (fraction); higher = more cells survive
Cediranib + Lapatinib = compound: COc1cc2c(Oc3ccc4[nH]c(C)cc4c3F)ncnc2cc1OCCCN1CCCC1 [Cediranib] + CS(=O)(=O)CCNCc1ccc(-c2ccc3ncnc(Nc4ccc(OCc5cccc(F)c5)c(Cl)c4)c3c2)o1 [Lapatinib] (partner 2 µM)
How it was run: (§1)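 Values are medians from duplicate plates. Each reflects relative viability, defined as the nuclei count of treated wells over that of vehicle wells. Lung cancer cell lines in 1536-well plates were pin-tool dosed one day after seeding with one drug alone or with a fixed anchor-drug dose plus five library-drug doses (not always all listed) in √10 steps, then fixed, stained and imaged at 4× after 5 days.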

Decitabine + Alpelisib = compound: Nc1ncn([C@H]2C[C@H](O)[C@@H](CO)O2)c(=O)n1 [Decitabine] + Cc1nc(NC(=O)N2CCC[C@H]2C(N)=O)sc1-c1ccnc(C(C)(C)C(F)(F)F)c1 [Alpelisib] (partner 2 µM)
How it was run: as §1

[1] = compound: O=C(C[C@H]1NCCC[C@@H]1O)Cn1cnc2cc(Br)c(Cl)cc2c1=O (racemic) [Halofuginone] + C[C@@H](Oc1cc(-c2cnn(C3CCNCC3)c2)cnc1N)c1c(Cl)ccc(F)c1Cl [Crizotinib] (partner 1 µM)
How it was run: as §1

[2] = compound: O=C(C[C@H]1NCCC[C@@H]1O)Cn1cnc2cc(Br)c(Cl)cc2c1=O (racemic) [Halofuginone] + Cc1cc(Nc2cc(N3CCN(C)CC3)nc(Sc3ccc(NC(=O)C4CC4)cc3)n2)n[nH]1 [Tozasertib] (partner 0.1 µM)
How it was run: as §1

Row | Cell Line | relative viability (Cediranib + Lapatinib; first compound 0.04 µM) | relative viability (Cediranib + Lapatinib; first compound 0.1265 µM) | relative viability (Cediranib + Lapatinib; first compound 0.4 µM) | relative viability (Cediranib + Lapatinib; first compound 1.265 µM) | relative viability (Cediranib + Lapatinib; first compound 4 µM) | relative viability (Decitabine + Alpelisib; first compound 0.04 µM) | relative viability (Decitabine + Alpelisib; first compound 0.1265 µM) | relative viability (Decitabine + Alpelisib; first compound 0.4 µM) | relative viability (Decitabine + Alpelisib; first compound 1.265 µM) | relative viability (Decitabine + Alpelisib; first compound 4 µM) | relative viability ([1]; first compound 0.001 µM) | relative viability ([1]; first compound 0.003162 µM) | relative viability ([1]; first compound 0.01 µM) | relative viability ([1]; first compound 0.03162 µM) | relative viability ([1]; first compound 0.1 µM) | relative viability ([2]; first compound 0.001 µM) | relative viability ([2]; first compound 0.003162 µM) | relative viability ([2]; first compound 0.01 µM) | relative viability ([2]; first compound 0.03162 µM) | relative viability ([2]; first compound 0.1 µM)
1 | LOU-NH91 | 0.818 | 0.788 | 0.807 | 0.676 | 0.761 | 0.484 | 0.673 | 0.688 | 0.592 | 0.61 | 0.782 | 0.718 | 0.714 | 0.964 | 0.688 | 0.7 | 0.791 | 0.642 | 0.705 | 0.576
2 | LU99A | 1.14 | – | 0.936 | 0.877 | 1.06 | 0.466 | 0.7 | 0.625 | 0.504 | 0.389 | 0.632 | 0.556 | 0.558 | 0.499 | 0.41 | 0.277 | 0.295 | 0.271 | 0.296 | 0.36
3 | LXF-289 | 0.988 | 0.816 | 0.852 | 0.958 | 0.846 | 0.716 | 0.606 | 0.478 | 0.352 | 0.315 | 0.829 | 0.737 | 0.746 | 0.825 | 0.653 | 0.196 | 0.199 | 0.245 | 0.173 | 0.178
4 | NCI-H23 | 0.977 | – | 1.21 | 0.881 | 1.38 | 0.604 | 0.391 | 0.275 | 0.218 | 0.238 | 0.582 | 0.724 | 0.486 | 0.609 | 0.218 | 0.387 | 0.399 | 0.383 | 0.387 | 0.265
5 | NCI-H322M | 0.578 | 0.915 | 0.562 | 0.617 | 0.52 | 0.659 | 0.613 | 0.71 | 0.498 | 0.403 | 0.982 | 0.911 | 0.906 | 1.01 | 0.77 | 0.461 | 0.468 | 0.462 | 0.467 | 0.258
6 | NCI-H358 | 0.478 | 0.666 | 0.454 | 0.419 | 0.466 | 0.747 | 0.519 | 0.383 | 0.266 | 0.238 | 0.832 | 0.678 | 0.467 | 0.253 | 0.0914 | 0.107 | 0.0894 | 0.095 | 0.0812 | 0.0809
7 | NCI-H460 | 1.05 | 1.01 | 0.905 | 1 | 0.639 | 0.425 | 0.575 | 0.348 | 0.268 | 0.191 | 1.05 | 1.06 | 0.866 | 0.409 | 0.0383 | 0.611 | 0.572 | 0.438 | 0.444 | 0.19
8 | NCI-H520 | 0.977 | – | 0.605 | 0.759 | 0.785 | 0.896 | 0.69 | 0.597 | 0.369 | 0.337 | 0.764 | 0.808 | 0.749 | 0.693 | 0.316 | 0.457 | 0.457 | 0.461 | 0.467 | 0.322
9 | NCI-H596 | 1.19 | 1.29 | 1.06 | 0.868 | 1.06 | 0.449 | 0.46 | 0.462 | 0.451 | 0.407 | 1.23 | 1.05 | 0.941 | 1.01 | 0.666 | 1.04 | 0.871 | 0.953 | 0.543 | 0.303
10 | NCI-H647 | 1.46 | 1.19 | 1.08 | 1.02 | 1.19 | 0.971 | 0.858 | 0.632 | 0.201 | 0.254 | 0.942 | 1.13 | 0.978 | 0.834 | 0.0795 | 0.441 | 0.324 | 0.267 | 0.171 | 0.0868
11 | NCI-H650 | 0.956 | 0.444 | 0.913 | 0.8 | 0.938 | 0.739 | 0.538 | 0.484 | 0.326 | 0.29 | 0.77 | 0.714 | 0.73 | 0.604 | 0.344 | 0.912 | 0.772 | 0.709 | 0.67 | 0.426
12 | NCI-H661 | 0.552 | 0.738 | 0.403 | 0.494 | 0.544 | 0.432 | 0.44 | 0.313 | 0.246 | 0.342 | 1.1 | – | 0.911 | 0.921 | 0.893 | 0.365 | 0.35 | 0.322 | 0.33 | 0.391
13 | NCI-H727 | 0.774 | 0.483 | 0.733 | 0.919 | 0.732 | 0.453 | 0.405 | 0.333 | 0.35 | 0.401 | 0.689 | 1.04 | 0.771 | 0.574 | 0.234 | 0.706 | 0.778 | 0.578 | 0.615 | 0.33
14 | NCI-H838 | 1.02 | 0.796 | 0.914 | 0.737 | 1.11 | 0.715 | 0.461 | 0.409 | 0.396 | 0.276 | 0.904 | 0.799 | 0.815 | 0.718 | 0.134 | 0.257 | 0.315 | 0.256 | 0.214 | 0.212
15 | NCI-H1355 | 1.01 | 0.693 | 0.955 | 0.798 | 1.03 | 0.632 | 0.536 | 0.412 | 0.295 | 0.266 | 1.04 | 1.04 | 1.08 | 1.08 | 0.921 | 0.667 | 0.533 | 0.538 | 0.527 | 0.488
16 | NCI-H1437 | 0.87 | 0.791 | 0.764 | 0.842 | 1.03 | 0.787 | 0.679 | 0.464 | 0.246 | 0.215 | 0.935 | 0.918 | 0.807 | 0.73 | 0.841 | 0.407 | 0.387 | 0.425 | 0.393 | 0.399
